Source: patent US10004701B2, “Methods and compositions for treating infection” (UNIVERSITY OF ROCHESTER, priority 2012, dated 2018)
Counter-ions that a name gives are not always drawn. Like-named read-outs stand apart in the source and are kept apart here.

Assays:
Experiment in all cases: AK assay 384-well format, Prestwick library screening
[1] = test system: E. faecium; format: cell-based, Enterococcus faecium; conditions: Enterococcus faecium, 3 h, 50 μM final drug concentration
[2] = test system: E. coli; format: cell-based, Escherichia coli; conditions: Escherichia coli, 3 h, 50 μM final drug concentration
[3] = test system: K. pneumoniae; format: cell-based, Klebsiella pneumoniae; conditions: Klebsiella pneumoniae, 3 h, 50 μM final drug concentration
[4] = test system: E. cloacae; format: cell-based, Enterobacter cloacae; conditions: Enterobacter cloacae, 3 h, 50 μM final drug concentration
[5] = test system: S. aureus strain USA300-0114; format: cell-based, Staphylococcus aureus; conditions: Staphylococcus aureus, USA300, 3 h, 50 μM final drug concentration
[6] = test system: P. aeruginosa; format: cell-based, Pseudomonas aeruginosa; conditions: Pseudomonas aeruginosa, 3 h, 50 μM final drug concentration
[7] = test system: A. baumannii strain 98-37-09; format: cell-based, Acinetobacter baumannii; conditions: Acinetobacter baumannii, 983709, 3 h, 50 μM final drug concentration
[8] = planktonic, cutoff for positive-scoring molecules 3-fold increase, read-out: AK-based Prestwick Library Screening Results, E. faecium (fold increase in extracellular AK activity)
[9] = planktonic, cutoff for positive-scoring molecules 3-fold increase, read-out: AK-based Prestwick Library Screening Results, E. coli (fold increase in extracellular AK activity)
[10] = planktonic, cutoff for positive-scoring molecules 3-fold increase, read-out: AK-based Prestwick Library Screening Results, K. pneumoniae (fold increase in extracellular AK activity)
[11] = planktonic, cutoff for positive-scoring molecules 3-fold increase, read-out: AK-based Prestwick Library Screening Results, E. cloacae (fold increase in extracellular AK activity)
[12] = planktonic, cutoff for positive-scoring molecules 3-fold increase, read-out: AK-based Prestwick Library Screening Results, S. aureus (fold increase in extracellular AK activity)
[13] = planktonic, cutoff for positive-scoring molecules 3-fold increase, read-out: AK-based Prestwick Library Screening Results, P. aeruginosa (fold increase in extracellular AK activity)
[14] = planktonic, cutoff for positive-scoring molecules 3-fold increase, read-out: AK-based Prestwick Library Screening Results, A. baumannii (fold increase in extracellular AK activity)
[15] = planktonic, cutoff for positive 3-fold increase, read-out: AK-based Prestwick Library Screening Results, E. faecium (fold increase in extracellular AK activity)
[16] = planktonic, cutoff for positive 3-fold increase, read-out: AK-based Prestwick Library Screening Results, E. coli (fold increase in extracellular AK activity)
[17] = planktonic, cutoff for positive 3-fold increase, read-out: AK-based Prestwick Library Screening Results, K. pneumoniae (fold increase in extracellular AK activity)
[18] = planktonic, cutoff for positive 3-fold increase, read-out: AK-based Prestwick Library Screening Results, E. cloacae (fold increase in extracellular AK activity)
[19] = planktonic, cutoff for positive 3-fold increase, read-out: AK-based Prestwick Library Screening Results, S. aureus (fold increase in extracellular AK activity)
[20] = planktonic, cutoff for positive 3-fold increase, read-out: AK-based Prestwick Library Screening Results, P. aeruginosa (fold increase in extracellular AK activity)
[21] = planktonic, cutoff for positive 3-fold increase, read-out: AK-based Prestwick Library Screening Results, A. baumannii (fold increase in extracellular AK activity)
[22] = planktonic E. faecium, 384-well, cutoff for positive-scoring molecules 3-fold increase, read-out: AK-based Prestwick Library Screening Results: E. faecium (increase in extracellular AK activity)
[23] = planktonic E. coli, 384-well, cutoff for positive-scoring molecules 3-fold increase, read-out: AK-based Prestwick Library Screening Results: E. coli (increase in extracellular AK activity)
[24] = planktonic K. pneumoniae, 384-well, cutoff for positive-scoring molecules 3-fold increase, read-out: AK-based Prestwick Library Screening Results: K. pneumoniae (increase in extracellular AK activity)
[25] = planktonic E. cloacae, 384-well, cutoff for positive-scoring molecules 3-fold increase, read-out: AK-based Prestwick Library Screening Results: E. cloacae (increase in extracellular AK activity)
[26] = planktonic S. aureus, 384-well, cutoff for positive-scoring molecules 3-fold increase, read-out: AK-based Prestwick Library Screening Results: S. aureus (increase in extracellular AK activity)
[27] = planktonic P. aeruginosa, 384-well, cutoff for positive-scoring molecules 3-fold increase, read-out: AK-based Prestwick Library Screening Results: P. aeruginosa (increase in extracellular AK activity)
[28] = planktonic A. baumannii, 384-well, cutoff for positive-scoring molecules 3-fold increase, read-out: AK-based Prestwick Library Screening Results: A. baumannii (increase in extracellular AK activity)

CN(C)CCCSC(=N)N [Dimaprit dihydrochloride]
fold induction at 50 µM ([1]; planktonic E. faecium, positive cutoff 3-fold increase, read-out: AK-based Prestwick library screening result, E. faecium (fold increase in extracellular AK activity)): 0.9 | fold induction at 50 µM ([2]; planktonic E. coli, positive cutoff 3-fold increase, read-out: AK-based Prestwick library screening result, E. coli (fold increase in extracellular AK activity)): 0.8 | fold induction at 50 µM ([3]; planktonic K. pneumoniae, positive cutoff 3-fold increase, read-out: AK-based Prestwick library screening result, K. pneumoniae (fold increase in extracellular AK activity)): 0.7 | fold induction at 50 µM ([4]; planktonic E. cloacae, positive cutoff 3-fold increase, read-out: AK-based Prestwick library screening result, E. cloacae (fold increase in extracellular AK activity)): 1 | fold induction at 50 µM ([5]; planktonic S. aureus, positive cutoff 3-fold increase, read-out: AK-based Prestwick library screening result, S. aureus (fold increase in extracellular AK activity)): 0.7 | fold induction at 50 µM ([6]; planktonic P. aeruginosa, positive cutoff 3-fold increase, read-out: AK-based Prestwick library screening result, P. aeruginosa (fold increase in extracellular AK activity)): 0.8 | fold induction at 50 µM ([7]; planktonic A. baumannii, positive cutoff 3-fold increase, read-out: AK-based Prestwick library screening result, A. baumannii (fold increase in extracellular AK activity)): 0.8

CC1(C)OC(=O)NC1=O [Dimethadione]
fold induction at 50 µM [1, 8]: 0.9 | fold induction at 50 µM [2, 9]: 0.9 | fold induction at 50 µM [3, 10]: 0.8 | fold induction at 50 µM [4, 11]: 1 | fold induction at 50 µM [5, 12]: 0.7 | fold induction at 50 µM [6, 13]: 0.8 | fold induction at 50 µM [7, 14]: 0.8

CCCCc1cc2ccccc2c(OCCN(C)C)n1 [Dimethisoquin hydrochloride]
fold induction at 50 µM [1, 15]: 1 | fold induction at 50 µM [2, 16]: 1.3 | fold induction at 50 µM [3, 17]: 1.2 | fold induction at 50 µM [4, 18]: 1.5 | fold induction at 50 µM [5, 19]: 1.3 | fold induction at 50 µM [6, 20]: 1.2 | fold induction at 50 µM [7, 21]: 1.5

CCCCC[C@H](O)/C=C/[C@@H]1[C@@H](C/C=C\CCCC(=O)O)[C@@H](O)C[C@H]1O [Dinoprost trometamol]
fold induction at 50 µM [1, 15]: 1 | fold induction at 50 µM [2, 16]: 1 | fold induction at 50 µM [3, 17]: 1 | fold induction at 50 µM [4, 18]: 1.1 | fold induction at 50 µM [5, 19]: 1.4 | fold induction at 50 µM [6, 20]: 1 | fold induction at 50 µM [7, 21]: 1.2

COc1ccc(C(=O)c2ccccc2O)c(O)c1 [Dioxybenzone]
fold induction at 50 µM [1, 8]: 0.8 | fold induction at 50 µM [2, 9]: 0.8 | fold induction at 50 µM [3, 10]: 0.7 | fold induction at 50 µM [4, 11]: 1 | fold induction at 50 µM [5, 12]: 0.5 | fold induction at 50 µM [6, 13]: 0.7 | fold induction at 50 µM [7, 14]: 0.6

O=C(Nc1ccccc1)OCC(CN1CCCCC1)OC(=O)Nc1ccccc1 (stereo not drawn) [Diperodon hydrochloride]
fold induction at 50 µM [1, 22]: 1.1 | fold induction at 50 µM [2, 23]: 1.4 | fold induction at 50 µM [3, 24]: 0.9 | fold induction at 50 µM [4, 25]: 1.4 | fold induction at 50 µM [5, 26]: 1.2 | fold induction at 50 µM [6, 27]: 1.1 | fold induction at 50 µM [7, 28]: 1.1

C[N+]1(C)CCC(=C(c2ccccc2)c2ccccc2)CC1 [Diphemanil methylsulfate]
fold induction at 50 µM ([1]; planktonic E. faecium, 384-well, […], read-out: AK-based Prestwick Library Screening Results: E. faecium (increase in extracellular AK activity)): 1.1 | fold induction at 50 µM ([2]; planktonic E. coli, 384-well, […], read-out: AK-based Prestwick Library Screening Results: E. coli (increase in extracellular AK activity)): 1.2 | fold induction at 50 µM ([3]; planktonic K. pneumoniae, 384-well, […], read-out: AK-based Prestwick Library Screening Results: K. pneumoniae (increase in extracellular AK activity)): 1.1 | fold induction at 50 µM ([4]; planktonic E. cloacae, 384-well, […], read-out: AK-based Prestwick Library Screening Results: E. cloacae (increase in extracellular AK activity)): 1.6 | fold induction at 50 µM ([5]; planktonic S. aureus, 384-well, […], read-out: AK-based Prestwick Library Screening Results: S. aureus (increase in extracellular AK activity)): 1.5 | fold induction at 50 µM ([6]; planktonic P. aeruginosa, 384-well, […], read-out: AK-based Prestwick Library Screening Results: P. aeruginosa (increase in extracellular AK activity)): 1 | fold induction at 50 µM ([7]; planktonic A. baumannii, 384-well, […], read-out: AK-based Prestwick Library Screening Results: A. baumannii (increase in extracellular AK activity)): 1.3

CN(C)CCOC(c1ccccc1)c1ccccc1 [Diphenhydramine hydrochloride]
fold induction at 50 µM [1, 22]: 0.9 | fold induction at 50 µM [2, 23]: 1.3 | fold induction at 50 µM [3, 24]: 1 | fold induction at 50 µM [4, 25]: 1.4 | fold induction at 50 µM [5, 26]: 1.1 | fold induction at 50 µM [6, 27]: 1 | fold induction at 50 µM [7, 28]: 1.3

OC(CCCN1CCCCC1)(c1ccccc1)c1ccccc1 [Diphenidol hydrochloride]
fold induction at 50 µM ([1]; 384-well format, cutoff for positive-scoring molecules 3-fold increase, read-out: AK-based Prestwick Library Screening Results, E. faecium (increase in extracellular AK activity)): 1 | fold induction at 50 µM ([2]; 384-well format, cutoff for positive-scoring molecules 3-fold increase, read-out: AK-based Prestwick Library Screening Results, E. coli (increase in extracellular AK activity)): 0.8 | fold induction at 50 µM ([3]; 384-well format, cutoff for positive-scoring molecules 3-fold increase, read-out: AK-based Prestwick Library Screening Results, K. pneumoniae (increase in extracellular AK activity)): 0.7 | fold induction at 50 µM ([4]; 384-well format, cutoff for positive-scoring molecules 3-fold increase, read-out: AK-based Prestwick Library Screening Results, E. cloacae (increase in extracellular AK activity)): 0.8 | fold induction at 50 µM ([5]; 384-well format, cutoff for positive-scoring molecules 3-fold increase, read-out: AK-based Prestwick Library Screening Results, S. aureus (increase in extracellular AK activity)): 0.7 | fold induction at 50 µM ([6]; 384-well format, cutoff for positive-scoring molecules 3-fold increase, read-out: AK-based Prestwick Library Screening Results, P. aeruginosa (increase in extracellular AK activity)): 0.8 | fold induction at 50 µM ([7]; 384-well format, cutoff for positive-scoring molecules 3-fold increase, read-out: AK-based Prestwick Library Screening Results, A. baumannii (increase in extracellular AK activity)): 0.7
